Measured values published in paper PMC11123979, “Discovery of Nine Dipeptidyl Peptidase-4 Inhibitors from Coptis chinensis Using Virtual Screening, Bioactivity Evaluation, and Binding Studies” (Molecules, 2024).
Read-outs that look alike come from different tables or passages of the source.

Experiments:
[1] = target: T1, DPP-4 (Homo sapiens, UniProt P27487); assay: DPP-4 inhibition assay (commercial DPP-4 inhibitor screening assay kit, fluorescence); type: biochemical; conditions: for IC50: dose-response curves, read-out: IC50 value of the DPP-4 inhibitory activity; for inhibition at 30 µM: read-out: DPP-4 inhibition (primary screening)
T1 construct: purchased Cayman Chemical Company 700210
Procedure: The DPP-4 inhibitory activity of 39 potential compounds obtained via virtual screening was tested using a commercial DPP-4 inhibitor screening assay kit (Item No. 700210, Cayman Chemical Company, Ann Arbor, MI, USA), and the kit’s instructions were followed exactly. The fluorescence intensity was measured at an excitation/emission wavelength of 360/460 nm using an EnVision Multilabel Reader (2104 PerkinElmer, Waltham, MA, USA). The possibility of false positives was eliminated by assessing the autofluorescence of each test compound. […] These compounds were prepared at a concentration of 30 μM in deionized water that contained 0.5% DMSO. […] The half-maximal inhibitory concentration (IC50) was determined using GraphPad Prism 9 software.

[2] = target: T1, DPP-4; assay: SPR-based binding assay (BIAcore T200, DPP-4 immobilized on CM5 chip); conditions: 'Affinity' module, 1:1, 25 °C, Tris-HCl pH 8.0
Procedure: The binding affinity between DPP-4 and six alkaloids in Coptis chinensis was evaluated using the BIAcore T200 system (GE Healthcare, Uppsala, Sweden). All SPR-related materials were obtained from GE Healthcare, and DPP-4 (D3446) was purchased from Sigma-Aldrich Chemical Co. (St. Louis, MO, USA). The DPP-4 protein, dissolved in PBS at a concentration of 40 ng/μL, was immobilized onto the surface of a CM5 sensor chip using a standard amine-coupling procedure. The test compounds were prepared at varying concentrations in a solution of Tris-Hcl (pH 8.0) and injected over the surface of the chip at a rate of 30 μL·min^−1 and a temperature of 25 °C. A reference flow cell without the immobilization of DPP-4 served as a control for non-specific binding. […] The chip could be regenerated and reused multiple times after it was treated with glycine–HCl (10 mM; pH 2.0). The test compounds were evaluated using the single-cycle kinetics mode across a two-fold concentration series (1.17–100 µM). The equilibrium constant (KD) was calculated based on the 1:1 reaction ratio between the molecule and protein, using the ‘affinity” module in the Biacore T200 software.

T1 sequence (P27487 whole entry): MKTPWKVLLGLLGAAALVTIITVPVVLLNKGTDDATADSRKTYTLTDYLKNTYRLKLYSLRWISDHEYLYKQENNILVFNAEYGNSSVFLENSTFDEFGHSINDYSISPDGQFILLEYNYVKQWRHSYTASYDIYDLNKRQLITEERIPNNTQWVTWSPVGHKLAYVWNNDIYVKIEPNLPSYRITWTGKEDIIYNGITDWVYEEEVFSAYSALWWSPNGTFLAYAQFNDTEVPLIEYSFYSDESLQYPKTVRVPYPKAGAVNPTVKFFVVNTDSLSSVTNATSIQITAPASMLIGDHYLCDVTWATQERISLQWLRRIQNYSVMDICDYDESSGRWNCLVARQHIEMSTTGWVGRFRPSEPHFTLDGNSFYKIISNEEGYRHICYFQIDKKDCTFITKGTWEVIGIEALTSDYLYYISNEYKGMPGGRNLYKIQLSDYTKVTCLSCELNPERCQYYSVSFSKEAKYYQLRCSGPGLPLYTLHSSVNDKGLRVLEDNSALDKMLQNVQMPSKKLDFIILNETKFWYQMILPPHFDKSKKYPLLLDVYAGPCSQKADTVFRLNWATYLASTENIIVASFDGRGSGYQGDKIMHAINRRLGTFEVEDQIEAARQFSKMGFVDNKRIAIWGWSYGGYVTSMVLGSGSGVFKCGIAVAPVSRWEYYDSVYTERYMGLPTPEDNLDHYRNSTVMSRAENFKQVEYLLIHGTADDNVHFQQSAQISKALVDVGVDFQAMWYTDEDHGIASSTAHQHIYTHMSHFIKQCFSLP

Structure (SMILES)	IC50 [1] [µM]	inhibition at 30 µM ([1]; final concentration of 30 μM) [%]	Kd [2] [µM]	inhibition at 30 µM [1] [%]
COc1ccc2cc3[n+](cc2c1O)CCc1cc2c(cc1-3)OCO2 [berberrubine]	27.4	> 40	18.8	
COc1cc2c(cc1O)-c1cc3ccc(OC)c(OC)c3c[n+]1CC2 [columbamine]	3.44	> 40	8.11	
COc1cc2c(cc1OC)-c1cc3ccc4c(c3c[n+]1CC2)OCO4 [epiberberine]	35.6	> 40		
COc1ccc2cc3[n+](cc2c1OC)CCc1cc(O)c(O)cc1-3 [demethyleneberberine]	3.63	> 40		
COc1cc2c(cc1OC)-c1cc3ccc(OC)c(OC)c3c[n+]1CC2 [palmatine]	49.8	> 40		
COc1cc2c(cc1O)CC[n+]1cc3c(OC)c(OC)ccc3cc1-2 [jatrorrhizine]	26.9		12.1	> 40
c1c2c(cc3c1OCO3)-c1cc3ccc4c(c3c[n+]1CC2)OCO4 [coptisine]	8.91	> 40	13.8	
COc1cc2c(cc1O)CC[n+]1cc3c4c(ccc3cc1-2)OCO4 [groenlandicine]	13.4	> 40	15	
COc1ccc2cc3[n+](cc2c1OC)CCc1cc2c(cc1-3)OCO2 [berberine]	53.7	> 40	30	
